Measurements: PubChem BioAssay (NCI)
“And” between values parts separate entries of the source, which are not always exact repeats. Identical values can stand only once.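 A five-concentration, 48-hour dose response in 96-well plates underlies each endpoint, interpolated linearly between surrounding concentrations. GI50 = concentration required for 50% inhibition of growth. At the TGI there is no net growth.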

Tests used:
Test in all cases: NCI anticancer screen, dose series, 48 h
PC-3 prostate = tested on: PC-3 prostate
SNB-19 CNS = tested on: SNB-19 CNS
M14 melanoma = tested on: M14 melanoma
MCF7 breast = tested on: MCF7 breast
UO-31 renal = tested on: UO-31 renal
HOP-62 NSCLC = tested on: HOP-62 NSCLC
NCI-H460 lung = tested on: NCI-H460 lung
UACC-257 melanoma = tested on: UACC-257 melanoma
SF-295 CNS = tested on: SF-295 CNS
MDA-MB-435 = tested on: MDA-MB-435

Row | SMILES | TGI (PC-3 prostate) | TGI (SNB-19 CNS) [µM] | TGI (M14 melanoma) | TGI (MCF7 breast) | GI50 (UO-31 renal) | TGI (UO-31 renal) | TGI (HOP-62 NSCLC) | GI50 (NCI-H460 lung) [µM] | TGI (NCI-H460 lung) [µM] | GI50 (PC-3 prostate) [µM] | GI50 (SNB-19 CNS) [µM] | GI50 (M14 melanoma) [µM] | GI50 (UACC-257 melanoma) [µM] | TGI (UACC-257 melanoma) [µM] | GI50 (MCF7 breast) [µM] | GI50 (SF-295 CNS) [µM] | TGI (SF-295 CNS) [µM] | GI50 (HOP-62 NSCLC) [µM] | GI50 (MDA-MB-435) [µM] | TGI (MDA-MB-435) [µM]
1 | CS(=O)(=O)c1ccc(C(=O)Nc2ccc(Cl)c(-c3ccccn3)c2)c(Cl)c1 | > 100 µM and 33.7 µM | > 100 | > 100 µM and 11.1 µM | > 100 µM and 14.9 µM | 12.1 µM and 3.66 µM | > 42.6 µM and 27 µM | > 100 µM and 19.3 µM | – | – | – | – | – | – | – | – | – | – | – | – | –
2 | N=C(N)c1ccc(N2CCCN(c3ccc(C(=N)N)cc3)CC2)cc1 | > 100 µM | > 100 | > 100 µM | > 100 µM | > 100 µM | > 100 µM | > 100 µM | 50.6 | > 100 | > 100 | 48.7 | > 100 | > 100 | > 100 | 52.3 | 32.6 | > 100 | 61.6 | > 100 | > 100
3 | C[Si](C)(C)OC1(C#N)C2C3CC4C2C(=O)C2C4C3C21 (stereo not drawn) | – | > 100 | > 100 µM | – | – | > 100 µM | > 100 µM | – | > 100 | – | – | – | – | > 100 | – | – | – | – | – | –
4 | CCCCCCCCCCCCCCCCCC(=O)OCC(COC1OC(COP(=O)(O)O)C(O)C(O)C1O)OC(=O)CCCCCCCCCCCCCCCCC (stereo not drawn) | 14.3 µM | 14.8 | 17.3 µM | 17.1 µM | – | – | 15.1 µM | – | 23.4 | – | – | – | – | 16.6 | – | – | 10.6 | – | – | 17.1
5 | Cn1c2c(cc(S(=O)(=O)c3ccccc3)c1=O)CCc1c-2cnn1-c1ccc(Cl)cc1 | – | 4.33 | – | > 100 µM | 1.87 µM | 6.09 µM | 7.61 µM | – | – | – | 2.01 | – | – | – | 4.59 | 2.09 | 5.04 | 2.93 | – | –
6 | CCC1CN2CCc3cc(OC)c(OC)cc3C2CC1CC1c2cc(OC)c(OC)cc2CCN1C(=O)C1CCCN1C(=O)OCc1ccccc1 (stereo not drawn) | – | 73.5 | 30.9 µM | – | – | 26 µM | 31.8 µM | – | 30.2 | – | – | – | – | 30.8 | – | – | 30.4 | – | – | –
7 | O=C1c2ccccc2-c2c1c1ccc([N+](=O)[O-])cc1c(=O)n2CCCBr | > 100 µM | > 100 | > 100 µM | > 100 µM | > 100 µM | > 100 µM | – | – | – | > 100 | > 100 | 3.26 | > 100 | > 100 | 0.153 | – | – | – | > 100 | > 100
8 | N#CC(C(=O)CCC(=O)Nc1cccc(Cl)c1)c1ccccc1 (stereo not drawn) | – | > 100 | > 100 µM | – | – | > 100 µM | > 100 µM | – | > 100 | – | – | – | – | > 100 | – | – | > 100 | – | – | –
9 | COc1cccc(C=Nc2cc(C)ccn2)c1O.COc1cccc(C=Nc2cc(C)ccn2)c1O.[Cu] | 42.9 µM | 60.5 | 39.1 µM | 62.8 µM | – | – | 63.7 µM | 18.3 | 44 | 17.8 | 19.7 | 12.7 | 19.1 | 43.1 | 19.7 | 18 | 46.1 | 22.2 | 13.6 | 45.9
10 | CC(=O)OC1CCn2nnc(CO[Si](C)(C)C(C)(C)C)c21 (stereo not drawn) | – | > 100 | > 100 µM | – | – | > 100 µM | – | – | > 100 | – | – | – | – | > 100 | – | – | > 100 | – | – | –
11 | Cc1cc2c(C)n(Cc3ccc(Cl)cc3Cl)nc2c(C#N)c1C | – | 45.7 | > 100 µM | – | – | > 95.3 µM | 49.7 µM | – | > 100 | – | – | – | – | > 100 | – | – | 60.9 | – | – | –
12 | CCOC(=O)C(=O)Nc1c(CC)cccc1C(C)C | – | > 100 | > 100 µM | – | – | > 100 µM | > 100 µM | – | > 100 | – | – | – | – | > 100 | – | – | > 100 | – | – | –
13 | CC(C)CC(CC1=CCC2CC1C2(C)C)C1=C(O)C(C)(C)C(=O)C(C)(C)C1=O (stereo not drawn) | > 100 µM | > 100 | 5.86 µM | > 100 µM | 0.272 µM | 2.4 µM | 1.14 µM | – | – | 0.318 | 0.375 | 0.404 | 0.256 | 0.792 | 0.303 | 0.285 | 0.942 | 0.303 | 0.374 | 31.8
14 | CCOC(=O)C(C)(c1cn(C)c2ccccc12)c1cn(C)c2ccccc12 | – | – | > 100 µM | – | – | > 100 µM | > 100 µM | – | > 100 | – | – | – | – | > 100 | – | – | > 100 | – | – | –
15 | CCOC(=O)C1Oc2ccc([N+](=O)[O-])c3c2C1(O)CCC3 (stereo not drawn) | – | > 100 | > 100 µM | – | – | > 100 µM | > 100 µM | – | > 100 | – | – | – | – | > 100 | – | – | > 100 | – | – | –
16 | O=C(O)C1(P(=O)(O)O)CC1 | – | > 100 | 76.4 µM | – | – | > 100 µM | > 100 µM | – | > 100 | – | – | – | – | > 100 | – | – | > 100 | – | – | –
17 | O=C1C(=O)N(c2ccc(Cl)c(Cl)c2)C(=O)C(=O)C1c1nc2ccccc2s1 | – | > 100 | > 100 µM | – | – | > 100 µM | > 100 µM | – | – | – | – | – | – | > 100 | – | – | > 100 | – | – | –
18 | COc1ccc(C2CC(c3cc(OC)c(OC)c(OC)c3)=NN2C(C)=O)cc1OCC(=O)Nc1nc2ccc(C(F)(F)F)cc2s1 (stereo not drawn) | > 100 µM | 35.8 | > 100 µM | > 100 µM | – | – | 5.58 µM | – | – | 2.92 | 11 | 6.44 | – | – | 4.02 | 3.06 | 11.5 | 2.2 | – | –
19 | COC1CC(OS(=O)(=O)c2ccc(C)cc2)C(OC(=O)c2ccccc2)C(C)O1 (stereo not drawn) | – | > 100 | > 100 µM | – | > 100 µM | > 100 µM | > 100 µM | > 100 | > 100 | – | > 100 | > 100 | – | > 10 | – | – | > 100 | > 100 | – | –
20 | O=S(=O)(c1ccccc1)C(CN1CCCCC1)S(=O)(=O)c1ccccc1 | – | > 100 | > 100 µM | – | – | > 100 µM | > 100 µM | – | > 100 | – | – | – | – | > 100 | – | – | > 100 | – | – | –
